Consider 3 molecules from patent US7964593B2, “Indolone-acetamide derivatives, processes for preparing them and their uses” (UCB Pharma, S.A., priority 2003, dated 2011).

For data set [1] the following is noted: compared with levetiracetam, literature statement; cited from earlier work.

One may read the melting point as the temperature of the solid-liquid transition. As for `C[C@H](C(N)=O)N1C(=O)Cc2cc(Cl)ccc21` (single isomer, unassigned) [Compound 33], the melting point was 171 to 172 °C.

Take `C[C@@H](C(N)=O)N1C(=O)Cc2cc(Cl)ccc21` (single isomer, unassigned) [Compound 34]: the melting point fell in the range of 171 to 172 °C.

Turning to `CC[C@H](C(N)=O)N1CCCC1=O` [(R)-α-ethyl-2-oxo-1-pyrrolidine acetamide], in data set [1], the “activity in the treatment of epilepsy” value is listed as “completely lacks activity”.
